Experimental data reported in patent EP3398599A1, “COMPOSITIONS AND METHODS FOR PROPHYLAXIS AND TREATMENT OF ADDICTIONS” (priority 2009, dated 2010).

What was measured:
[1] = test system: msP rats; test: Voluntary ethanol intake, acute treatment, free choice between water and 10% alcohol 24 hours a day; assay type: in vivo; details: for ethanol intake: 2, 8 and 24 hours
Procedure: The drug was given orally (OS) via gavage procedure in a volume of 1.0 ml/kg. Yohimbine was dissolved in distilled water and was administered intraperitoneally (IP) in a volume of 1.0 ml/kg. […] These drugs were given orally (OS) via gavage procedure in a volume of 1.0 ml/kg. Yohimbina was dissolved in distilled water and was administered intraperitoneally (IP) in a volume of 1.0 ml/kg. GW9662 was prepared in 5% DMSO and 5% TWIN 80 and was given either IP (1 ml/kg) or intacerebroventricularly (ICV, 1 µl/rat). Antalarmin was prepared in 10 % TWIN 80 and was given IP (1 ml/kg). Ondansetron was prepared in acqueous solution and was given IP (1 ml/kg).
At the beginning of the experiments, msP rats were allowed free choice between water and 10% (v/v) alcohol 24 h/day for at least 15 days. The fluids were offered in graduated drinking tubes equipped with metallic drinking spouts. The position (to the right or left) of alcohol and water drinking tubes was changed daily to avoid the development of side preference. […] Alcohol, water and food intakes were measured.
MsP rats were first trained to drink 10% (w/v) alcohol for 24 hours a day (free choice between water and ethanol). […] Before starting the treatment, rats were trained to gavage administration procedures for three days, during which they received vehicle (distilled water). […] Drinking experiments started at the beginning of the dark cycle. Alcohol, water and food intakes were monitored at 2, 8 and 24 hours after ethanol was made available.
Before starting the treatment, rats were trained to gavage and IP administration procedures for three days. Experiment was conducted in a between subject design (n = 22). […] Drinking experiments started at the beginning of the dark cycle. Alcohol, water and food intakes were monitored at 2, 8 and 24 hours after ethanol was made available.
The experiment was conduced using a within subject counterbalanced Latine square design, where each animal received all drug doses.
The drinking experiments were conducted at the beginning of the dark cycle, and alcohol, water and food intakes were monitored at 2, 8 and 24 hours after ethanol was made available.
(§1) MsP rats were first trained to drink 10% (w/v) alcohol for 24 hours a day (free choice between water and ethanol). […] Rats treated with drug vehicles served as a control. Before starting the treatment, rats were trained to gavage administration for three days, during which they received drugs vehicle (distilled water). […] Drinking experiments started at the beginning of the dark cycle. Alcohol, water, and food intakes were monitored at 2, 8 and 24 hours after ethanol was made available.
as §1, with “water” for “water,”
as §1, with “water” for “water,”
MsP rats were first trained to drink 10% (w/v) alcohol for 24 hours a day (free choice between water and ethanol). […] Rats treated with drug vehicles served as a control. Before starting the treatment, rats were trained to gavage administration for three days, during which they received drugs vehicle (distilled water).

[2] = test system: heavy tobacco smokers; test: Pilot study in heavy tobacco smokers (pioglitazone 15-30 mg/daily, varenicline 0.5 to 2.0 mg/day, bupropione 150 mg/kg); assay type: in vivo, human; details: for STAI score (anxiety): over 10 treatment weeks
From the text: […] Patients were instructed to record in a personal logbook the number of cigarettes per day and the time of the day smoking occurred. At the end of the study, the logbooks were returned to the clinical personnel who analyzed the data. Every other week, participants were interviewed and subjected to the Spielberger State-Trait Anxiety Inventory (STAI), the Montgomery Asberg Depression Rating Scale (M.A.D.R.S 10 Item), and to a Visual Analogic Scale (VAS) to measure nicotine craving. During the first month of treatment, every two weeks, ACTH and cortisol levels were also monitored to evaluate HPA activation before and during treatment.

[3] = test system: human patients; test: Observational study of alcohol abuse in human patients (pioglitazone 30 mg/day or naltrexone 50 mg/day + psychotherapy); assay type: in vivo; details: T=0 (beginning of the treatment)
From the text: Patients were instructed to record in a personal logbook the number of drinks per day and the time of the day drinks occurred. At the end of the study, the logbooks were returned to the clinical personnel who analyzed the data.
In addition, biochemical parameters to ascertain alcohol detoxification and to measure recovery of physiological functions (i.e., hepatic function) were monitored monthly. Hematological parameters measured included: mean corpuscular volume (MCV); gamma-GT; aspartate aminotransferase (AST); alanine aminotransferase (ALT); and carbohydrate-deficient transferring (CDT). MCV and CDT are biomarkers for ethanol consumption, and GGT, ALT and AST are biomarkers for hepatic functionality.
Data were analyzed by analysis of variance followed by Newman-Keuls post hoc tests when appropriate.

CC[C@@H](C(N)=O)N1CCCC1=O [levetiracetam]
ethanol intake in msP rats in a pilot study ([1]; levetiracetam 100.0 mg/kg OS): did not reduce ethanol intake
ethanol intake ([1]; levetiracetam alone 100.0 mg/kg OS, given twice): did not significantly modify ethanol intake

O=C(Nc1ccccc1)c1cc([N+](=O)[O-])ccc1Cl [GW9662]
ethanol intake per se ([1]; GW9662 5 µg/rat ICV alone): did not significantly affect ethanol intake per se
pioglitazone-induced reduction of ethanol intake ([1]; GW9662 5 µg/rat ICV with pioglitazone 30 mg/kg OS): completely prevented the effect of pioglitazone
pioglitazone-induced reduction of ethanol intake ([1]; GW9662 IP (1.0 and 5.0 mg/kg) with pioglitazone 30 mg/kg OS): blocked the effect of pioglitazone in a dose related manner
ethanol drinking ([1]; GW9662 alone (1.0 and 5.0 mg/kg IP)): did not modify ethanol drinking

CC(NC(C)(C)C)C(=O)c1cccc(Cl)c1 (stereo not shown) [bupropione]
STAI score (anxiety) [2]: not with bupropione

NCC1(CC(=O)O)CCCCC1 [gabapentin]
ethanol intake in msP rats in a pilot study ([1]; gabapentin 60.0 mg/kg OS): did not reduce ethanol intake
ethanol intake ([1]; gabapentin alone 60.0 mg/kg OS): did not significantly modify ethanol intake

CNCCC(Oc1ccc(C(F)(F)F)cc1)c1ccccc1 (stereo not shown) [fluoxetine]
ethanol intake in msP rats in a pilot study ([1]; fluoxetine 3.0 mg/kg OS): did not reduce ethanol intake
ethanol intake ([1]; fluoxetine alone 3.0 mg/kg OS, given twice): did not significantly modify ethanol intake

CCc1ccc(CCOc2ccc(CC3SC(=O)NC3=O)cc2)nc1 (stereo not shown) [pioglitazone]
Anxiety Score obtained using The STAY-Y1 scale (mean score values) [3]: 59

Cc1nccn1CC1CCc2c(c3ccccc3n2C)C1=O (stereo not shown) [ondansetron]
ethanol intake in msP rats in a pilot study ([1]; ondansetron 1.0 mg/kg IP): did not reduce ethanol intake
ethanol intake ([1]; ondansetron alone 1.0 mg/kg IP, given twice): did not significantly modify ethanol intake

c1cnc2cc3c(cc2n1)[C@@H]1CNC[C@H]3C1 [varenicline]
Percent inhibition of smoking ([2]; Patient 1, T=0 (baseline expressed as 100%)): 100%
Percent inhibition of smoking ([2]; Patient 1, T=2 weeks of treatment): 34%
Percent inhibition of smoking ([2]; Patient 1, T=4 weeks of treatment): 46%
Percent inhibition of smoking ([2]; Patient 1, T=6 weeks of treatment): 61%
Percent inhibition of smoking ([2]; Patient 1, T=8 weeks of treatment): 80%
Percent inhibition of smoking ([2]; Patient 1, T=10 weeks of treatment): 93%
Percent inhibition of smoking ([2]; Patient 2, T=0 (baseline expressed as 100%)): 100%
Percent inhibition of smoking ([2]; Patient 2, T=2 weeks of treatment): 22%
Percent inhibition of smoking ([2]; Patient 2, T=4 weeks of treatment): 47%
Percent inhibition of smoking ([2]; Patient 2, T=6 weeks of treatment): 63%
Percent inhibition of smoking ([2]; Patient 2, T=8 weeks of treatment): 87%
Percent inhibition of smoking ([2]; Patient 2, T=10 weeks of treatment): 100%
Percent inhibition of smoking ([2]; Patient 3, T=0 (baseline expressed as 100%)): 100%
Percent inhibition of smoking ([2]; Patient 3, T=2 weeks of treatment): 38%
Percent inhibition of smoking ([2]; Patient 3, T=4 weeks of treatment): 54%
Percent inhibition of smoking ([2]; Patient 3, T=6 weeks of treatment): 62%
Percent inhibition of smoking ([2]; Patient 3, T=8 weeks of treatment): 79%
Percent inhibition of smoking ([2]; Patient 3, T=10 weeks of treatment): 94%
STAI score (anxiety) [2]: significantly reduced
subjects reaching complete abstinence ([2]; pioglitazone 4 patients, varenicline 3 patients): one of them
percent of weekly smoked cigarettes: pioglitazone vs varenicline ([2]; post hoc tests): no significant differences

CC1(C)O[C@@H]2[C@@H](CO[C@@]3(COS(N)(=O)=O)OC(C)(C)O[C@@H]23)O1 [topiramate]
ethanol intake in msP rats in a pilot study ([1]; topiramate 30.0 mg/kg OS): did not reduce ethanol intake
ethanol intake ([1]; topiramate alone 30.0 mg/kg OS, given twice): did not significantly modify ethanol intake
ethanol intake at 2 hours ([1]; topiramate alone 30.0 mg/kg OS, p<0.05): significant reduction of ethanol intake at 2 hours

CN1CCN2c3ncccc3Cc3ccccc3C2C1 (stereo not shown) [mirtazapine]
ethanol intake in msP rats in a pilot study ([1]; mirtazapine 5.0 mg/kg OS): did not reduce ethanol intake
ethanol intake ([1]; mirtazapine alone 5.0 mg/kg OS, given twice): did not significantly modify ethanol intake
